One assay has as its target 15-PGDH (Homo sapiens (Human), UniProt P15428). The assay is described as follows: Detection of 15-PGDH enzyme activity. The format is biochemical. As to conditions: 15-PGDH enzyme inhibitory activity; substrates β-NAD and PGF2α. The text has this: The formula was shown below: Y=Bottom+(Top-Bottom)/(1+10∧((LogIC50−X)*HillSlope)), wherein X is a log value of a concentration of the compound, and Y is inhibition rate %.

The test system of the next assay is A549 cells. The assay is described as follows: Assay of intracellular PGE2 up-regulatory activity. Type of assay: cell-based. As to conditions: Homo sapiens, IL-1β induced, 8 h, relative to positive control group; for activity at 0.01 µM: 10 nM compound, read-out: PGE2 upregulation rate at 10 nM compound concentration; for activity at 0.3 µM: 300 nM compound, read-out: PGE2 upregulation rate at 300 nM compound concentration. On the procedure:
• a) A549 cells were inoculated in the 24-well plate, and after cell adhesion, IL-1β was added thereto for 16 h of stimulation to induce COX2 expression and PGE2 production. • b) A solution of the compound to be tested was prepared with the culture medium and gradiently diluted to 3 concentrations of 10 nM, 300 nM and 10,000 nM or 7 concentrations of 0.64 nM, 3.2 nM, 16 nM, 80 nM, 400 nM, 2000 nM and 10,000 nM, and meanwhile the positive control group (only IL-1β was added to the cells for induction) and negative control group (only cells were added in the wells without any treatment) were set up. The cell supernatants were collected after 8 h of action, in which the positive control group was induced by IL-1β without treatment of the compounds, and the negative control group was neither stimulated by IL-1β, nor treated with the compounds. • c) The PGE2 content of the samples was determined by Prostaglandin E2 Kit, and the fluorescence signal was detected by a multifunctional microplate reader (Ex/Em=337/620, 337/665).
• a) A standard curve was plotted with the PGE2 standard in the Prostaglandin E2 Kit, and the PGE2 concentration was calculated by substituting with the fluorescence signal of the sample. • b) The PGE2 upregulation rate % was calculated by using the following formula: • PGE2 upregulation rate %=(PGE2 concentration of sample group/PGE2 concentration of positive control group)×100%.

Bounds are passed on as bounds.

Data on five compounds can be found in patent US20250154162A1, “COMPOUND FOR REGULATING AND CONTROLLING 15-PGDH ACTIVITY AND PREPARATION METHOD THEREFOR” (SCINNOHUB PHARMACEUTICAL CO., LTD., priority 2022, published 2025).

Chain of 15-PGDH (P15428 whole entry): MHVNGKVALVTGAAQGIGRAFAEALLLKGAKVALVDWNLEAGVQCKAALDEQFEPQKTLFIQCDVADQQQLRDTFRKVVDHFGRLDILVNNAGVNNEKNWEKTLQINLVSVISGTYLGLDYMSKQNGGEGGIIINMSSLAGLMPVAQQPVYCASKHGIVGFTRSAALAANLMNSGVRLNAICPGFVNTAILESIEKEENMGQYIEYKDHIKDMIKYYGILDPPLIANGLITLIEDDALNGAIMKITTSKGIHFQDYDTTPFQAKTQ

Compound `COc1cncc(-c2cnc3c(N)c(C(=O)N4CCCCC4)sc3n2)c1` [Example 45] showed an IC50 against 15-PGDH of 0.5 to 3 nM. In the assay on A549 cells, the activity at 0.01 µM came to 177% and the activity at 0.3 µM stood at 347%.

The compound `Nc1c(C(=O)N2CCCCC2)sc2nc(-c3ccc(F)nc3)cnc12` [Example 46] returned an IC50 on 15-PGDH of 0.5 to 3 nM. The activity at 0.3 µM in the assay with A549 cells worked out at 251%.

`N#Cc1ccc(-c2cnc3c(N)c(C(=O)N4CCCCC4)sc3n2)cn1` [Example 47]: at 15-PGDH, the IC50 was under 0.5 nM. In addition, in the assay with A549 cells, the activity at 0.01 µM is 424% and the activity at 0.3 µM was 774%.

On 15-PGDH, `CN1Cc2cc(-c3cnc4c(N)c(C(=O)N5CCCCC5)sc4n3)ccc2C1=O` [Example 63] had an IC50 of 0.5 to 3 nM. Besides, the activity at 0.3 µM with A549 cells turned out to be 222%.

Compound `Cn1ccc2cc(-c3cnc4c(N)c(C(=O)N5CCCCC5)sc4n3)ccc2c1=O` [Example 64] registered a half-maximal inhibitory concentration (IC50) against 15-PGDH of 0.5 to 3 nM. In the assay on A549 cells, the activity at 0.01 µM was determined as 173% and the activity at 0.3 µM was found to be 196%.

In general, IC50 refers to the point on the concentration scale where inhibition reaches its midpoint. Low readings indicate inhibition by little substance, high ones a need for much substance.
